Test: FIH Study Part A dose escalation: adverse events
Description: TEAEs and TRAEs from the clinical study database were coded to system organ class and preferred term using MedDRA version 22.0 and SAEs from the centralized safety database were coded using MedDRA version 25.0. The severity of adverse events was graded according to the NCI CTCAE version 5.0.

## O=C1CC[C@H](N2Cc3cc(N4CCN(CC5CCN(c6ccc([C@@H]7c8ccc(O)cc8CC[C@@H]7c7ccccc7)cc6)CC5)CC4)ccc3C2=O)C(=O)N1 [Compound A, (S)-3-(5-(4-((1-(4-((1R,2S)-6-hydroxy-2-phenyl-1,2,3,4-tetrahydronaphthalen-1-yl)phenyl)piperidin-4-yl)methyl)piperazin-1-yl)-1-oxoisoindolin-2-yl)piperidine-2,6-dione]
30 mg (N=3)
  TEAE Alanine aminotransferase increased: 0 n
  TEAE Arthralgia: 0 n
  TEAE Aspartate aminotransferase increased: 0 n
  TEAE Back pain: 0 n
  TEAE Constipation: 0 n
  TEAE Decreased appetite: 0 n
  TEAE Diarrhea: 0 n
  TEAE Dizziness: 0 n
  TEAE Fatigue: 0 n
  TEAE Headache: 0 n
  TEAE Hot flush: 1 n
  TEAE Hyperglycemia: 0 n
  TEAE Insomnia: 1 n
  TEAE Nausea: 0 n
  TEAE Pain in extremity: 0 n
  TEAE Vomiting: 0 n
  TRAE Arthralgia: 0 n
  TRAE Constipation: 0 n
  TRAE Decreased appetite: 0 n
  TRAE Fatigue: 0 n
  TRAE Hot flush: 0 n
  TRAE Nausea: 0 n
  TRAE Vomiting: 0 n
60 mg (N=3)
  TEAE Alanine aminotransferase increased: 0 n
  TEAE Arthralgia: 1 n
  TEAE Aspartate aminotransferase increased: 0 n
  TEAE Back pain: 0 n
  TEAE Constipation: 1 n
  TEAE Decreased appetite: 0 n
  TEAE Diarrhea: 0 n
  TEAE Dizziness: 1 n
  TEAE Fatigue: 1 n
  TEAE Headache: 1 n
  TEAE Hot flush: 0 n
  TEAE Hyperglycemia: 0 n
  TEAE Insomnia: 0 n
  TEAE Nausea: 2 n
  TEAE Pain in extremity: 1 n
  TEAE Vomiting: 0 n
  TRAE Arthralgia: 1 n
  TRAE Constipation: 0 n
  TRAE Decreased appetite: 0 n
  TRAE Fatigue: 1 n
  TRAE Hot flush: 0 n
  TRAE Nausea: 2 n
  TRAE Vomiting: 0 n
100 mg (N=9)
  TEAE Alanine aminotransferase increased: 0 n
  TEAE Arthralgia: 2 n
  TEAE Aspartate aminotransferase increased: 0 n
  TEAE Back pain: 1 n
  TEAE Constipation: 2 n
  TEAE Decreased appetite: 2 n
  TEAE Diarrhea: 4 n
  TEAE Dizziness: 0 n
  TEAE Fatigue: 2 n
  TEAE Headache: 1 n
  TEAE Hot flush: 1 n
  TEAE Hyperglycemia: 0 n
  TEAE Insomnia: 0 n
  TEAE Nausea: 2 n
  TEAE Pain in extremity: 0 n
  TEAE Vomiting: 1 n
  TRAE Arthralgia: 1 n
  TRAE Constipation: 1 n
  TRAE Decreased appetite: 2 n
  TRAE Fatigue: 1 n
  TRAE Hot flush: 1 n
  TRAE Nausea: 1 n
  TRAE Vomiting: 0 n
120 mg (N=7)
  TEAE Alanine aminotransferase increased: 1 n
  TEAE Arthralgia: 2 n
  TEAE Aspartate aminotransferase increased: 3 n
  TEAE Back pain: 1 n
  TEAE Constipation: 2 n
  TEAE Decreased appetite: 3 n
  TEAE Diarrhea: 0 n
  TEAE Dizziness: 1 n
  TEAE Fatigue: 0 n
  TEAE Headache: 2 n
  TEAE Hot flush: 1 n
  TEAE Hyperglycemia: 1 n
  TEAE Insomnia: 1 n
  TEAE Nausea: 2 n
  TEAE Pain in extremity: 2 n
  TEAE Vomiting: 2 n
  TRAE Arthralgia: 2 n
  TRAE Constipation: 1 n
  TRAE Decreased appetite: 3 n
  TRAE Fatigue: 0 n
  TRAE Hot flush: 0 n
  TRAE Nausea: 2 n
  TRAE Vomiting: 2 n
180 mg (N=7)
  TEAE Alanine aminotransferase increased: 2 n
  TEAE Arthralgia: 2 n
  TEAE Aspartate aminotransferase increased: 2 n
  TEAE Back pain: 0 n
  TEAE Constipation: 1 n
  TEAE Decreased appetite: 0 n
  TEAE Diarrhea: 0 n
  TEAE Dizziness: 0 n
  TEAE Fatigue: 2 n
  TEAE Headache: 0 n
  TEAE Hot flush: 0 n
  TEAE Hyperglycemia: 0 n
  TEAE Insomnia: 0 n
  TEAE Nausea: 2 n
  TEAE Pain in extremity: 1 n
  TEAE Vomiting: 0 n
  TRAE Arthralgia: 1 n
  TRAE Constipation: 0 n
  TRAE Decreased appetite: 0 n
  TRAE Fatigue: 1 n
  TRAE Hot flush: 0 n
  TRAE Nausea: 2 n
  TRAE Vomiting: 0 n
200 mg (N=8)
  TEAE Alanine aminotransferase increased: 2 n
  TEAE Arthralgia: 1 n
  TEAE Aspartate aminotransferase increased: 3 n
  TEAE Back pain: 1 n
  TEAE Constipation: 2 n
  TEAE Decreased appetite: 0 n
  TEAE Diarrhea: 1 n
  TEAE Dizziness: 0 n
  TEAE Fatigue: 1 n
  TEAE Headache: 1 n
  TEAE Hot flush: 1 n
  TEAE Hyperglycemia: 1 n
  TEAE Insomnia: 1 n
  TEAE Nausea: 3 n
  TEAE Pain in extremity: 0 n
  TEAE Vomiting: 1 n
  TRAE Arthralgia: 1 n
  TRAE Constipation: 2 n
  TRAE Decreased appetite: 0 n
  TRAE Fatigue: 0 n
  TRAE Hot flush: 1 n

From US20260069588A1, “VEPDEGESTRANT FOR USE IN TREATING CANCER” (Arvinas Operation, Inc., priority 2022, published 2026)
